Results published in patent US20230011869A1 (Hoffmann-La Roche Inc., priority 2018, published 2023).
Where a name gives a salt, the structure may show the parent alone.

These compounds were tested on Acinetobacter baumannii ATCC17978 (assay: Antimicrobial susceptibility testing: 90% growth inhibitory concentration (IC90) determination, Iso-Sensitest broth). Details: 90% growth inhibitory concentration, Acinetobacter baumannii ATCC17978, Iso-Sensitest broth, OD 600 nm over 16 h; read-out: ATCC17978 IC90.
Type: cell-based
Procedure, shortened: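 A. baumannii ATCC17978 grown in Iso-Sensitest broth across 10 compound concentrations at 35±2 °C.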

**Q.** How did the IC90 turn out when COc1ccc(-c2cnc3c(Nc4ccc(C(=O)N5CCCN(C)CC5)c(C)c4)nccn23)cc1 [Example 383, [4-[[3-(4-methoxyphenyl)imidazo[1,2-a]pyrazin-8-yl]amino]-2-methylphenyl]-(4-methyl-1,4-diazepan-1-yl)methanone] was run?
**A.** Its IC90 is 4300 nM.

**Q.** How did the IC90 turn out when COc1ccc(-c2cnc3c(Nc4ccc(C(=O)N5CCC(N(C)C)C5)c(C)c4)nccn23)cc1 (centres unmarked) [Example 384, [3-(dimethylamino)pyrrolidin-1-yl]-[4-[[3-(4-methoxyphenyl)imidazo[1,2-a]pyrazin-8-yl]amino]-2-methylphenyl]methanone] was run?
**A.** The IC90 was 5200 nM.

**Q.** Cc1cc(Nc2nccn3c(-c4ccc(OCC#CCO)c(F)c4)cnc23)ccc1C(=O)N1CCC(CN)CC1 [Example 387, [4-(aminomethyl)piperidin-1-yl]-[4-[[3-[3-fluoro-4-(4-hydroxybut-2-ynoxy)phenyl]imidazo[1,2-a]pyrazin-8-yl]amino]-2-methylphenyl]methanone; for-mic acid] was tested. Which IC90 did it give?
**A.** Its IC90 is 240 nM.

**Q.** With COc1ccc(-c2cnc3c(Nc4ccc(C(=O)N5CCC(C(=O)NC(CO)(CO)CO)CC5)c(C)c4)nccn23)cc1F [Example 388, N-[1,3-dihydroxy-2-(hydroxymethyl)propan-2-yl]-1-[4-[[3-(3-fluoro-4-methoxyphenyl)imidazo[1,2-a]pyrazin-8-yl]amino]-2-methylbenzoyl]piperidine-4-carboxamide] as the compound, how does the IC90 read?
**A.** Its IC90 is 260 nM.

**Q.** How did the IC90 turn out when COc1ccc(-c2cnc3c(Nc4ccc(C(=O)N5CCN(S(N)(=O)=O)CC5)c(C)c4)nccn23)cc1F [Example 389, 4-[4-[[3-(3-fluoro-4-methoxyphenyl)imidazo[1,2-a]pyrazin-8-yl]amino]-2-methylbenzoyl]piperazine-1-sulfonamide] was run?
**A.** The IC90 was 310 nM.

**Q.** How did the IC90 turn out when COc1ccc(-c2cnc3c(Nc4ccc(C(=O)N5CCC(N6CCCC(CO)C6)CC5)c(C)c4)nccn23)cc1F (centres unmarked) [Example 390, [4-[[3-(3-fluoro-4-methoxyphenyl)imidazo[1,2-a]pyrazin-8-yl]amino]-2-methylphenyl]-[4-[3-(hydroxymethyl)piperidin-1-1-yl)piperidin-1-yl]methanone] was run?
**A.** Its IC90 is 320 nM.

**Q.** How did the IC90 turn out when COc1ccc(-c2cnc3c(Nc4ccc(C(=O)N5CCC(C(=O)N6CCNC7(CC7)C6)CC5)c(C)c4)nccn23)cc1F [Example 395, [4-(4,7-diazaspiro[2.5]octane-7-carbonyl)piperidin-1-yl]-[4-[[3-(3-fluoro-4-methoxyphenyl)imidazo[1,2-a]pyrazin-8-yl]amino]-2-methylphenyl]methanone; hy-drochloride] was run?
**A.** The IC90 was 340 nM.

**Q.** COc1ccc(-c2cnc3c(Nc4ccc(C(=O)N5CCC(C(=O)NCCNCCO)CC5)c(C)c4)nccn23)cc1F [Example 396, 1-[4-[[3-(3-fluoro-4-methoxyphenyl)imidazo[1,2-a]pyrazin-8-yl]amino]-2-methylbenzoyl]-N-[2-(2-hydroxyethylamino)ethyl]pi-peridine-4-carboxamide; 2,2,2-trifluoroacetic acid] was tested. Which IC90 did it give?
**A.** Its IC90 is 340 nM.

**Q.** How did the IC90 turn out when COc1ccc(-c2cnc3c(Nc4ccc(C(=O)N5CCC(C(=O)N6CCN(c7nccn7C)CC6)CC5)c(C)c4)nccn23)cc1F [Example 397, [4-[[3-(3-fluoro-4-methoxyphenyl)imidazo[1,2-a]pyrazin-8-yl]amino]-2-methylphenyl]-[4-[4-(1-methylimidazol-2-yl)piperazine-1-carbonyl]piperidin-1-yl]methanone] was run?
**A.** Its IC90 is 360 nM.

Same assay, conditions: Acinetobacter baumannii, ATCC17978, 16 h, read-out: ATCC17978 IC90, 90% growth inhibitory concentration, Acinetobacter baumannii ATCC17978, Iso-Sensitest broth, OD 600 nm over 16 h

**Q.** With Cc1cc(Nc2nccn3c(-c4ccc(OC(F)F)cc4)cnc23)ccc1C(=O)N1CCOCC1CN (centres unmarked) [Example 378, [3-(aminomethyl)morpholin-4-yl]-[4-[[3-[4-(difluoromethoxy)phenyl]imi-dazo[1,2-a]pyrazin-8-yl]amino]-2-methylphenyl]methanone; hy-drochloride] as the compound, how does the IC90 read?
**A.** The IC90 was 2500 nM.

**Q.** Which IC90 does the source give for Cc1cc(Nc2nccn3c(-c4ccc(OC(F)F)cc4)cnc23)ccc1C(=O)N1CCOC2(CCNCC2)C1 [Example 379, [4-[[3-[4-(difluoromethoxy)phenyl]imi-dazo[1,2-a]pyrazin-8-yl]amino]-2-methylphenyl]-(1-oxa-4,9-diazaspiro[5.5]undecan-4-yl)methanone; hydrochloride] here?
**A.** The IC90 was 2800 nM.

**Q.** Cc1cnn(CC2CCN(C(=O)c3ccc(Nc4nccn5c(-c6ccc(OC(F)F)cc6)cnc45)cc3C)CC2)c1 [Example 380, [4-[[3-[4-(difluoromethoxy)phenyl]imi-dazo[1,2-a]pyrazin-8-yl]amino]-2-methylphenyl]-[4-[(4-methylpyrazol-1-yl)methyl]piperidin-1-yl]methanone] was tested. Which IC90 did it give?
**A.** The IC90 was 2800 nM.

**Q.** For Cc1cc(Nc2nccn3c(-c4ccc(OC(F)F)cc4)cnc23)ccc1C(=O)N1CCC2(CCNCC2)C1 [Example 381, 2,8-diazaspiro[4.5]decan-2-yl-[4-[[3-[4-(difluoromethoxy)phenyl]imi-dazo[1,2-a]pyrazin-8-yl]amino]-2-methylphenyl]methanone; hy-drochloride], which IC90 is on record?
**A.** Its IC90 is 2900 nM.

**Q.** Cc1cc(Nc2nccn3c(-c4ccc(OC(F)F)cc4)cnc23)ccc1C(=O)N1CCC(CC(=O)O)CC1 [Example 382, 2-[1-[4-[[3-[4-(difluoromethoxy)phenyl]imi-dazo[1,2-a]pyrazin-8-yl]amino]-2-methylbenzoyl]piperidin-4-yl]acetic acid] was tested. Which IC90 did it give?
**A.** Its IC90 is 3600 nM.

**Q.** How did the IC90 turn out when CN1CCN(C(=O)c2ccc(Nc3nccn4c(-c5ccc(OC(F)F)cc5)cnc34)cc2C(F)(F)F)CC1 [Example 385, [4-[[3-[4-(difluoromethoxy)phenyl]imi-dazo[1,2-a]pyrazin-8-yl]amino]-2-(trifluoromethyl)phenyl]-(4-methylpiperazin-1-yl)methanone] was run?
**A.** Its IC90 is 7400 nM.

**Q.** For CCc1cc(Nc2nccn3c(-c4ccc(OC)c(F)c4)cnc23)ccc1C(=O)N1CCC(CN)CC1 [Example 386, [4-(aminomethyl)piperidin-1-yl]-[2-ethyl-4-[[3-(3-fluoro-4-methoxyphenyl)imidazo[1,2-a]pyrazin-8-yl]amino]phenyl]methanone; formic acid], which IC90 is on record?
**A.** The IC90 was 180 nM.

**Q.** Which IC90 does the source give for CNCCN(C)C(=O)C1CCN(C(=O)c2ccc(Nc3nccn4c(-c5ccc(OC)c(F)c5)cnc34)cc2C)CC1 [Example 391, 1-[4-[[3-(3-fluoro-4-methoxyphenyl)imidazo[1,2-a]pyrazin-8-yl]amino]-2-methylbenzoyl]-N-methyl-N-[2-(methylamino)ethyl]piperidine-4-carboxamide; hydrochloride] here?
**A.** The IC90 was 340 nM.

**Q.** With COc1ccc(-c2cnc3c(Nc4ccc(C(=O)N5CCC(C(=O)N6CC[C@@H](N)[C@@H](O)C6)CC5)c(C)c4)nccn23)cc1F [Example 392, [4-[(3S,4R)-4-amino-3-hydroxypiperidine-1-carbonyl]piperidin-1-yl]-[4-[[3-(3-fluoro-4-methoxyphenyl)imidazo[1,2-a]pyrazin-8-yl]amino]-2-methylphenyl]methanone; 2,2,2-trifluoroacetic acid] as the compound, how does the IC90 read?
**A.** Its IC90 is 340 nM.

**Q.** COc1ccc(-c2cnc3c(Nc4ccc(C(=O)N5CCC(C(=O)NCCN)CC5)c(C)c4)nccn23)cc1F [Example 393, N-(2-aminoethyl)-1-[4-[[3-(3-fluoro-4-methoxyphenyl)imidazo[1,2-a]pyrazin-8-yl]amino]-2-methylbenzoyl]piperidine-4-carboxamide; hydrochloride] was tested. Which IC90 did it give?
**A.** The IC90 was 340 nM.

**Q.** COc1ccc(-c2cnc3c(Nc4ccc(C(=O)N5CCC(CN)CC5)c(C(F)(F)F)c4)nccn23)cc1F [Example 394, [4-(aminomethyl)piperidin-1-yl]-[4-[[3-(3-fluoro-4-methoxyphenyl)imidazo[1,2-a]pyrazin-8-yl]amino]-2-(trifluoromethyl)phenyl]meth-anone; formic acid] was tested. Which IC90 did it give?
**A.** Its IC90 is 340 nM.
